The source of these data is PMC4714926 (ACS chemical biology, 2015).

For data set [1], the target named is recombinant human FKBP12 (Homo sapiens, UniProt P62942). The data set can be described thus: PAMPA partitioning with recombinant human FKBP12 on one side of the membrane. The settings on record: compared to control wells. (In general: In PAMPA a lipid-coated filter parts donor from acceptor wells.)
Data set [2] has as its system GFP-HIV protease fusion. The data set can be described thus: GFP-HIV protease reporter assay in HEK293 T-REx cells. The data set is classed as cell-based, human. On the technique in general: Reporter assays use an easily measured gene product as a stand-in for the process of interest.
Data set [3] addresses FKBP. Particulars: read-out: KD for FKBP; cited from earlier work.

Sequence of recombinant human FKBP12 (P62942 whole entry, the tested form may be a part): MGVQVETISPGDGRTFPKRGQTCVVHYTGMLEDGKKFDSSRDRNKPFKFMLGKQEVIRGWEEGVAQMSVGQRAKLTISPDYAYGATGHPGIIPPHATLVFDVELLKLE

In the case of `CC(C)CN(C[C@@H](O)[C@H](Cc1ccccc1)NC(=O)O[C@H]1CCOC1)S(=O)(=O)c1ccc(N)cc1` [amprenavir], the “enhancement of partitioning by FKBP12” value in data set [1] is recorded as “unaffected by FKBP12”.

As for `COc1ccc(S(=O)(=O)N(CC(C)C)C[C@@H](O)[C@H](Cc2ccccc2)NC(=O)O[C@H]2CCOC2)cc1` [4-OMe-amprenavir], the “rescue of cell viability and GFP fluorescence” value in data set [2] (5 μM, after doxycycline induction, fluorescence and light microscopy) was “could rescue cell viability and increase fluorescence”. In addition, in data set [2] (transient mCherry-FKBP12 over-expression, microscopy), the “dependence of GFP fluorescence on mCherry-FKBP12 over-expression” value is “did not show this dependence on mCherry-FKBP12 expression”.

Turning to `C=CC[C@@H]1/C=C(\C)C[C@H](C)C[C@H](OC)[C@H]2O[C@@](O)(C(=O)C(=O)N3CCCC[C@H]3C(=O)O[C@H](/C(C)=C/[C@@H]3CC[C@@H](O)[C@H](OC)C3)[C@H](C)[C@@H](O)CC1=O)[C@H](C)C[C@@H]2OC` [FK506], the dissociation constant (Kd) – broadly, the free concentration of one partner at which half of the binding sites on the other are occupied at equilibrium, for simple one-to-one binding – in data set [3] is roughly 0.6 nM.
